# Data as given in PMC4710668, “Bioactivation of food genotoxicants 5-hydroxymethylfurfural and furfuryl alcohol by sulfotransferases from human, mouse and rat: a comparative study” (Archives of Toxicology, 2014).
# Key:
# [1] = system: mSult2a3; assay: HMF sulfoconjugation assay; type: biochemical, mouse
# Procedure: (§1) Cytosolic fractions containing individual SULT forms were prepared from transgenic S. typhimurium TA1538. Table S1 in the Supplementary Material provides a summary of the thirty SULTs used in the current study together with references describing the cloning of the respective S. typhimurium TA1538 strains. The expressed SULT forms are denoted with the prefixes h, m and r for human, mouse and rat enzymes, respectively. Bacteria were grown in Luria Broth medium containing ampicillin (100 µg/ml) by stirring for 8 h at 200 revolutions/min at 37 °C. The bacterial suspensions were centrifuged at 5,000 g for 10 min. The sediments were washed twice with 25 ml of 10 mM potassium phosphate buffer (pH 7.4)/50 mM potassium chloride (KCP buffer) and centrifuged again. The pellets were taken up in 800 µl KCP buffer and sonicated thrice for 15 s with 30 s pauses in between. The soluble fraction was attained by centrifuging for 1 h at 100,000 g. The supernatants (in the following termed cytosolic preparations) were frozen at −80 °C. The protein concentrations were determined according to a bicinchoninic acid (BCA) assay protocol. The SULT concentrations in the cytosolic preparations were estimated after electrophoretic separation and immunodetection using inclusion bodies of different SULT forms as standards (Teubner et al. [2007]). The preparation of SULT inclusion bodies and the immunodetection of SULTs is described in the Supplementary Material, which also contains a representative immunoblot of different amounts of rSult1a1standard and a cytosolic preparation of S. typhimurium expressing rSult1a1 (Fig. S1).
# (§2) The reactions were conducted in mixtures of 100 µl containing 25–200 µg protein, 50 mM potassium phosphate buffer (pH 7.4), 5 mM MgCl2, 50 µM PAPS and different concentrations of HMF at 37 °C. Preliminary experiments ensured that measurements were recorded under ‘linear’ conditions, i.e., doubling of protein concentration or incubation time was doubling the amount of sulfate ester formed. The reactions were stopped after 30 min by adding 300 µl ice-cold 2-propanol, mixed and centrifuged at 15,000 g for 10 min.
# (§3) SMF concentrations of the clear supernatants were analyzed by UPLC-MS/MS. The protocol was adapted from the quantification of SMF in plasma samples of HMF-treated mice (Monien et al. [2009]). In short, the supernatants were analyzed using a UPLC system (Waters) connected to a Quattro Premier XE tandem quadrupole mass spectrometer (Waters) using the negative electrospray ionization mode. Samples of 4 µl were injected into a HSS T3 column (1.8 µm, 2.1 × 100 mm; Waters) and eluted with an isocratic flow of 0.35 ml/min 10 mM ammonium acetate/methanol (95:5). The fragmentation reactions of SMF yielding two principal ions, the sulfate ion radical (m/z = 204.9 → 96.0) and the protonated sulfonate ion (m/z = 204.9 → 81.0) were monitored. The tune parameters were as follows: temperature of the electrospray source 120 °C; desolvation temperature 475 °C; desolvation gas nitrogen (800 l/h); cone gas nitrogen (100 l/h); collision gas argon (indicated cell pressure ~5 × 10^−3 mbar). For the fragmentation of SMF, collision energies were 20 and 23 eV for the transitions m/z = 204.9 → 81.0 and m/z = 204.9 → 96.0, respectively. The dwell time was set to 100 ms, and capillary voltage was set to 0.35 kV. The cone and RF1 lens voltages were 32 and 0.2 V, respectively. SMF was quantified using an external calibration line that was linear in the concentration range of 1.0 nM (4 fmol/injection) to 2,500 (10 pmol/injection) SMF (r ^2 ≥ 0.99). Data acquisition and handling were performed with MassLynx 4.1 software (Waters). The limit of detection (LOD) for this technique of 2.5 nM SMF has been reported (Monien et al. [2009]). In the current study, this corresponds to 10 fmol SMF per injection or a reaction rate of 0.5 pmol SMF/mg/min.
# [2] = system: mSult5a1; assay: HMF sulfoconjugation assay; type: biochemical, mouse
# Procedure: as §1, §2, §3
# [3] = target: T1, hSULT2B1a (Homo sapiens, UniProt O00204); assay: HMF sulfoconjugation assay; type: biochemical
# T1 construct: made in house; host or cells: Salmonella typhimurium TA1538 (cytosolic fraction, not purified)
# T1 sequence (O00204 1-350 isoform O00204-2): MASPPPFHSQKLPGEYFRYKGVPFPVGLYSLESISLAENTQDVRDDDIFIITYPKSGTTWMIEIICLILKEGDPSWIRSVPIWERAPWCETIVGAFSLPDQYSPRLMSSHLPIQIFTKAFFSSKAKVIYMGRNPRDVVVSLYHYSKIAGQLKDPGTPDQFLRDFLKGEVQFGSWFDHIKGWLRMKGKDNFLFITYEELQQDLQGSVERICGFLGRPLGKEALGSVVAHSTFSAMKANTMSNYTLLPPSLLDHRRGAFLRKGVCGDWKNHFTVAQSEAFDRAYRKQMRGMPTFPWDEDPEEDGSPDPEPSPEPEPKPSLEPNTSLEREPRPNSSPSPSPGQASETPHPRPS
# Procedure: as §1, §2, §3
# [4] = target: T2, hSULT1E1 (Homo sapiens, UniProt P49888); assay: HMF sulfoconjugation assay; type: biochemical
# T2 construct: made in house; host or cells: Salmonella typhimurium TA1538 (cytosolic fraction, not purified)
# T2 sequence (P49888 1-294): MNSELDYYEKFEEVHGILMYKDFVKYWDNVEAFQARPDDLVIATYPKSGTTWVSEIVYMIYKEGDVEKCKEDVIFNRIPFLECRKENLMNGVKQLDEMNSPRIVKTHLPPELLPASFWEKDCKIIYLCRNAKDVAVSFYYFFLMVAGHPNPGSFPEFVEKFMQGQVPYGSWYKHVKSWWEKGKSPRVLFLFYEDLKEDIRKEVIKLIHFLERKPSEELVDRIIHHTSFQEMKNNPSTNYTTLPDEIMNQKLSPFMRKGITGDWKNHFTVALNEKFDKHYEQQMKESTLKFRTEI
# Procedure: as §1, §2, §3
# [5] = target: T3, rSult1c2 (Rattus norvegicus, UniProt Q9WUW8); assay: HMF sulfoconjugation assay; type: biochemical
# T3 construct: made in house; host or cells: Salmonella typhimurium TA1538 (cytosolic fraction, enzyme not purified)
# T3 sequence (Q9WUW8 whole entry): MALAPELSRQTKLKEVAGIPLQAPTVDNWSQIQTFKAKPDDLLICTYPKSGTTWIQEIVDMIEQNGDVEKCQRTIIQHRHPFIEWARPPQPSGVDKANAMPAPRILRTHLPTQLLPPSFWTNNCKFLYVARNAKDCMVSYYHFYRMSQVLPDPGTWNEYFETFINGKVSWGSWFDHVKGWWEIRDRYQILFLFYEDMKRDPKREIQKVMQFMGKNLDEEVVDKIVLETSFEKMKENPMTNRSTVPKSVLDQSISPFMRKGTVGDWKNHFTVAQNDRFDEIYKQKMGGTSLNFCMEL
# Procedure: as §1, §2, §3
# [6] = target: T4, hSULT1A1 (Homo sapiens, UniProt P50225); assay: HMF sulfoconjugation assay; type: biochemical
# T4 construct: made in house; host or cells: Salmonella typhimurium TA1538 (cytosolic fraction, not purified)
# T4 sequence (P50225 whole entry): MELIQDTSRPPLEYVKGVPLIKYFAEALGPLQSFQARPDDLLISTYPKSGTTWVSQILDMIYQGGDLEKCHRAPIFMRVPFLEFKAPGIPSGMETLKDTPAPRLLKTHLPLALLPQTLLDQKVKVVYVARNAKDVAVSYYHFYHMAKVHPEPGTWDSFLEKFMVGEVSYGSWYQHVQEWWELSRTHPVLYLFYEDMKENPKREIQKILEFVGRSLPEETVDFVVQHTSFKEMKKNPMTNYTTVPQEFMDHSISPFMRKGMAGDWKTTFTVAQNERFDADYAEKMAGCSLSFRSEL
# Procedure: as §1, §2, §3
# [7] = design: method as in Monien et al. [2009]; conditions: 100 mg HMF/kg body weight administered to mice; ref Monien et al. [2009]; cited from earlier work
smiles,measurement,setting,value
"O=Cc1ccc(CO)o1 [HMF, 5-Hydroxymethylfurfural]",Rate of sulfoconjugation,[1]; 0.1 mM HMF,<0.5 pmol/mg/min
same,Rate of sulfoconjugation,[1]; 1 mM HMF,<0.5 pmol/mg/min
same,Rate of sulfoconjugation,[1]; 10 mM HMF,<0.5 pmol/mg/min
same,Rate of sulfoconjugation,[1]; 100 mM HMF,<0.5 pmol/mg/min
same,Rate of sulfoconjugation,[2]; 0.1 mM HMF,<0.5 pmol/mg/min
same,Rate of sulfoconjugation,[2]; 1 mM HMF,<0.5 pmol/mg/min
same,Rate of sulfoconjugation,[2]; 10 mM HMF,<0.5 pmol/mg/min
same,Rate of sulfoconjugation,[2]; 100 mM HMF,<0.5 pmol/mg/min
same,Rate of sulfoconjugation,[3]; 0.1 mM HMF,<0.5 pmol/mg/min
same,Rate of sulfoconjugation,[3]; 1 mM HMF,<0.5 pmol/mg/min
same,Rate of sulfoconjugation,[3]; 10 mM HMF,<0.5 pmol/mg/min
same,Rate of sulfoconjugation,[3]; 100 mM HMF,<0.5 pmol/mg/min
same,Rate of sulfoconjugation,[4]; 0.1 mM HMF,<0.5 pmol/mg/min
same,Rate of sulfoconjugation,[4]; 1 mM HMF,1.0 ± 0.2 pmol/mg/min
same,Rate of sulfoconjugation,[4]; 10 mM HMF,5.7 ± 0.8 pmol/mg/min
same,Rate of sulfoconjugation,[4]; 100 mM HMF,7.7 ± 1.2 pmol/mg/min
same,Rate of sulfoconjugation,[5]; 0.1 mM HMF,<0.5 pmol/mg/min
same,Rate of sulfoconjugation,[5]; 1 mM HMF,<0.5 pmol/mg/min
same,Rate of sulfoconjugation,[5]; 10 mM HMF,2.3 ± 0.2 pmol/mg/min
same,Rate of sulfoconjugation,[5]; 100 mM HMF,15.0 ± 1.1 pmol/mg/min
same,"ratio of HMF sulfoconjugation efficiency, hSULT1A1 vs hSULT1C2",[6],about 19 times
same,Rate of sulfoconjugation,[6]; 0.1 mM HMF,20.4 ± 2.8 pmol/mg/min
same,Rate of sulfoconjugation,[6]; 1 mM HMF,171 ± 18 pmol/mg/min
same,Rate of sulfoconjugation,[6]; 10 mM HMF,641 ± 100 pmol/mg/min
same,Rate of sulfoconjugation,[6]; 100 mM HMF,699 ± 170 pmol/mg/min
same,K M,"[6]; HMF sulfoconjugation, Michaelis-Menten fit",3.2 ± 0.4 mM
same,fraction of dose converted to SMF,[7],500 ppm
